For the test, the target named is T1, VDR (Homo sapiens, UniProt P11473).
T1 construct: -CMV-VDR-LBD coding for the hinge region and; expressed in transfected cells; host or cells: HEK293T
T1 sequence (P11473 127-423 limits assumed): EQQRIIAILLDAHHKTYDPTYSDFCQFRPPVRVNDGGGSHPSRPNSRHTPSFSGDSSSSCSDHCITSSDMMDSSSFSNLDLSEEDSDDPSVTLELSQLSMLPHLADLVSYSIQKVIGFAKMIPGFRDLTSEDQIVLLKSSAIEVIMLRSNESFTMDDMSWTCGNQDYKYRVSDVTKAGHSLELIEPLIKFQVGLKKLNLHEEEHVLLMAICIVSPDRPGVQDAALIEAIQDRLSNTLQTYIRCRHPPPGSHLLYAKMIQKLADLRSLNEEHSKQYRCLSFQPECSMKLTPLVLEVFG
Nature of the test: fluorescent (mCherry) reporter gene assay, in‐cell VDR activation over time. In kind it is cell-based. Particulars: 1 µM. On the procedure: To evaluate the potential of 10 for in‐cell control of VDR activity, we determined its light‐dependent effect over time (Figure 3a) using VDR‐induced expression of the fluorescent protein mCherry as reporter for non‐invasive monitoring. Under illumination with a Cell‐Disco [24]
FIGURE 3 Optical control of VDR activity with photo‐vitD (10). (a) 10 (1 µM) enabled light‐dependent in‐cell activation of VDR in a fluorescent (mCherry) reporter gene assay. Gray curve: dark; blue curve: Cell‐Disco (370 nm; 100 ms/10 s); yellow curve: dark for 10 h, then Cell‐Disco (370 nm); magenta curve: Cell‐Disco (370 nm) for 10 h, then Cell‐Disco (450 nm). Lines are the mean, shadows are S.E.M.; n = 6. (b–d) Phenotypic model of bone formation using human […] (ASC52telo hTERT cells) and cyclic treatment with dexamethasone, 2‐phospho‐L‐ascorbic acid, and glycerol 2‐phosphate over 15 days to induce osteogenesis. Alkaline phosphatase (ALP) activity (b) and von Kossa staining of hydroxyapatite (c; representative photomicrographs in d) were used as markers of osteogenesis. Experiments were performed in the dark (gray bars) and using a Cell‐Disco (370 nm, 100 ms/10 s; blue bars). Data are the mean±SD, n = 6. * p<0.05, ** p<0.01, *** p<0.001 (vs. respective dark or illuminated DMSO (diff.) ctrl or as indicated; ANOVA with Dunnett's multiple comparisons test).
Gal4-hybrid reporter gene assays. […] After 14−16 h incubation, luciferase activity was measured using the Dual -Glo Luciferase Assay System (Promega) according to the manufacturer’s protocol on a Tecan Spark luminometer (Tecan Deutschland GmbH, Crailsheim, Germany). […] EC 50 and IC50 values were calculated by fitting dose−response data with the equation “[agonist] vs response − variable slope (four parameters)” or “[inhibitor] vs response − variable slope (four parameters)” in GraphPad Prism (version 7, GraphPad software, La Jolla, CA, USA). […]
Fluorescent Reporter Gene Assay. The fluorescence reporter gene assay was performed in HEK293T […]
(In a reporter assay the amount or activity of a reporter protein is the signal.)

In the case of `CCCc1cc(C(O)(CC)CC)ccc1-c1ccc(/N=N/c2ccc3cc(C(=O)O)ccc3c2)cc1C` [compound 10], the “VDR‐induced mCherry fluorescence over time” value by setting is: (Cell‐Disco 370 nm for 10 h, then switched back to (E)‐state with 450 nm light) “the increase in mCherry fluorescence ceased”; (Cell‐Disco 370 nm, 100 ms/10 s ((Z)‐state)) “mCherry fluorescence constantly increased”; (without illumination (dark)) “no increase in fluorescence”.

(Values after PMC13360702, “An Agonist/Antagonist Photo‐Switchable Vitamin D Mimetic Enables Bidirectional Optical Control of VDR” (Angewandte Chemie (International Ed. in English), 2026).)
